We go through one compound from article PMC3302575 (Biochemistry, 2011).

SMILES strings stand for the structures.

Test in all cases: copurification, absorption spectroscopy of native protein
Holding throughout (format): binding

In one assay the target is T1, zebrafish CRY4 (ZfCRY4) (Danio rerio, UniProt Q9I912).
T1 sequence (Q9I912 1-558): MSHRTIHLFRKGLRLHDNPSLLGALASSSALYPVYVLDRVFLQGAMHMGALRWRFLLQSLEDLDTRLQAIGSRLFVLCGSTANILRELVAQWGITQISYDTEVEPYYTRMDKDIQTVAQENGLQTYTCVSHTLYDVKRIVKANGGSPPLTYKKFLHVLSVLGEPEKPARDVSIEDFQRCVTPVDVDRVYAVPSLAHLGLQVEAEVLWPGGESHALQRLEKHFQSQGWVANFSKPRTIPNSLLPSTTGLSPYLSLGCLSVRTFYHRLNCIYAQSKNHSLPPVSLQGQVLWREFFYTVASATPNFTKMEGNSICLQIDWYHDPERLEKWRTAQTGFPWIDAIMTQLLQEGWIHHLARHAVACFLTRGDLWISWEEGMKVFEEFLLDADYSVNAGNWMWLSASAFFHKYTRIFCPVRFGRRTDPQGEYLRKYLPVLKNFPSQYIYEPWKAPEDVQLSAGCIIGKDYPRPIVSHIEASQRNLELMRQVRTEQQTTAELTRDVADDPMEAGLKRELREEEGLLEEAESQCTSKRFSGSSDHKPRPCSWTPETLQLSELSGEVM
As to conditions: Sf21 medium with or without F0; pH 7.5.

The target in assay [1] is Drosophila cryptochrome (DmCRY) (Drosophila melanogaster, UniProt O77059). The following applies: Sf21 medium with or without F0; pH 7.5.
Assay [2] addresses A. thaliana CRY2 (AtCRY2) (Arabidopsis thaliana, UniProt Q96524). The following applies: Sf21 medium with or without F0; pH 7.4.

Chain of Drosophila cryptochrome (DmCRY) (O77059 whole entry): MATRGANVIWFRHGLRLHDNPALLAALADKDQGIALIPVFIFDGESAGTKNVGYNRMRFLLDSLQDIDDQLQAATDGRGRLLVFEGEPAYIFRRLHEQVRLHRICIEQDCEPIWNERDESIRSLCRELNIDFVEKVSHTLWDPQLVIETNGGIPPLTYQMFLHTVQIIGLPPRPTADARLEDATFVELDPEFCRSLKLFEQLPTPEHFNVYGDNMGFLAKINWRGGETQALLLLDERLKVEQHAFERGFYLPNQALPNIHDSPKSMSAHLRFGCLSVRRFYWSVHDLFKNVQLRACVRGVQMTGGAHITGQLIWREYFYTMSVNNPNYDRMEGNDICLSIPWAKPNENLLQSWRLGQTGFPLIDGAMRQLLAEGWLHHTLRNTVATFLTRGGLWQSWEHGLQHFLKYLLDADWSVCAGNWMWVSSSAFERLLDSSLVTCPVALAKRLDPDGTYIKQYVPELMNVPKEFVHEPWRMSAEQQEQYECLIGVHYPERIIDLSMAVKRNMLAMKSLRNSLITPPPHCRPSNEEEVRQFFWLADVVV
Chain of A. thaliana CRY2 (AtCRY2) (Q96524 whole entry): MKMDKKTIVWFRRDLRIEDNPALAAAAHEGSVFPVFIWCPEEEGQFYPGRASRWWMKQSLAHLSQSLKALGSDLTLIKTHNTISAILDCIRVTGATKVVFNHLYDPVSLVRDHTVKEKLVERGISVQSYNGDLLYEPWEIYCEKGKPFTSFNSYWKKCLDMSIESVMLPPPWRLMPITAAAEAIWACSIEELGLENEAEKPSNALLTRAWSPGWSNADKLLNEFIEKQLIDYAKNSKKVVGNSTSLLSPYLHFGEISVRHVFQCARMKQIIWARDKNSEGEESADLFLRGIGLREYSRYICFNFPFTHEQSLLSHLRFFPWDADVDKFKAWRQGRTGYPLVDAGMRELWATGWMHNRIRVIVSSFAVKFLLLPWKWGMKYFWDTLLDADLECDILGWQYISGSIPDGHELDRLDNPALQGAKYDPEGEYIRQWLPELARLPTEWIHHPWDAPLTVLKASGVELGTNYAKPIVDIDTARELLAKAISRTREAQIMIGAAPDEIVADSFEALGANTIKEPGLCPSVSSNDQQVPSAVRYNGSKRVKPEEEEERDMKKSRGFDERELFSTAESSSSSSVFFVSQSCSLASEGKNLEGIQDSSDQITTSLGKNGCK

In the case of `Cc1cc2nc3c(=O)[nH]c(=O)nc-3n(C[C@H](O)[C@H](O)[C@H](O)COP(=O)(O)OP(=O)(O)OC[C@H]3O[C@@H](n4cnc5c(N)ncnc54)[C@H](O)[C@@H]3O)c2cc1C` [FAD], the “copurification, absorption spectroscopy of native protein” value on zebrafish CRY4 (ZfCRY4) was “both AtCRY2 (A,B) and ZfCRY4 (C,D), expressed with and without F0, contained FAD”; in assay [1], “exhibited only the spectra of enzyme-bound FAD (Fig. 4E,F)”; in assay [2], “both AtCRY2 (A,B) and ZfCRY4 (C,D), expressed with and without F0, contained FAD”.
